The text below walks through data of patent publication US10035801B2, “Pyrazolo compounds and uses thereof” (CONSTELLATION PHARMACEUTICALS, INC., priority 2013, dated 2018).

Molecules are shown by their SMILES.

This assay addresses T1, KDM5A (Homo sapiens, UniProt P29375).
T1 construct: Full length KDM5A enzyme was expressed and purified inhouse; made in house
Briefly: KDM5 enzyme assay, KDM5A HTRF (Example 463). The note with it: compounds of Examples 1-432; read-out: Example 463 Assay KDM5A HTRF IC50. It is filed as biochemical.

T1 sequence (P29375 whole entry): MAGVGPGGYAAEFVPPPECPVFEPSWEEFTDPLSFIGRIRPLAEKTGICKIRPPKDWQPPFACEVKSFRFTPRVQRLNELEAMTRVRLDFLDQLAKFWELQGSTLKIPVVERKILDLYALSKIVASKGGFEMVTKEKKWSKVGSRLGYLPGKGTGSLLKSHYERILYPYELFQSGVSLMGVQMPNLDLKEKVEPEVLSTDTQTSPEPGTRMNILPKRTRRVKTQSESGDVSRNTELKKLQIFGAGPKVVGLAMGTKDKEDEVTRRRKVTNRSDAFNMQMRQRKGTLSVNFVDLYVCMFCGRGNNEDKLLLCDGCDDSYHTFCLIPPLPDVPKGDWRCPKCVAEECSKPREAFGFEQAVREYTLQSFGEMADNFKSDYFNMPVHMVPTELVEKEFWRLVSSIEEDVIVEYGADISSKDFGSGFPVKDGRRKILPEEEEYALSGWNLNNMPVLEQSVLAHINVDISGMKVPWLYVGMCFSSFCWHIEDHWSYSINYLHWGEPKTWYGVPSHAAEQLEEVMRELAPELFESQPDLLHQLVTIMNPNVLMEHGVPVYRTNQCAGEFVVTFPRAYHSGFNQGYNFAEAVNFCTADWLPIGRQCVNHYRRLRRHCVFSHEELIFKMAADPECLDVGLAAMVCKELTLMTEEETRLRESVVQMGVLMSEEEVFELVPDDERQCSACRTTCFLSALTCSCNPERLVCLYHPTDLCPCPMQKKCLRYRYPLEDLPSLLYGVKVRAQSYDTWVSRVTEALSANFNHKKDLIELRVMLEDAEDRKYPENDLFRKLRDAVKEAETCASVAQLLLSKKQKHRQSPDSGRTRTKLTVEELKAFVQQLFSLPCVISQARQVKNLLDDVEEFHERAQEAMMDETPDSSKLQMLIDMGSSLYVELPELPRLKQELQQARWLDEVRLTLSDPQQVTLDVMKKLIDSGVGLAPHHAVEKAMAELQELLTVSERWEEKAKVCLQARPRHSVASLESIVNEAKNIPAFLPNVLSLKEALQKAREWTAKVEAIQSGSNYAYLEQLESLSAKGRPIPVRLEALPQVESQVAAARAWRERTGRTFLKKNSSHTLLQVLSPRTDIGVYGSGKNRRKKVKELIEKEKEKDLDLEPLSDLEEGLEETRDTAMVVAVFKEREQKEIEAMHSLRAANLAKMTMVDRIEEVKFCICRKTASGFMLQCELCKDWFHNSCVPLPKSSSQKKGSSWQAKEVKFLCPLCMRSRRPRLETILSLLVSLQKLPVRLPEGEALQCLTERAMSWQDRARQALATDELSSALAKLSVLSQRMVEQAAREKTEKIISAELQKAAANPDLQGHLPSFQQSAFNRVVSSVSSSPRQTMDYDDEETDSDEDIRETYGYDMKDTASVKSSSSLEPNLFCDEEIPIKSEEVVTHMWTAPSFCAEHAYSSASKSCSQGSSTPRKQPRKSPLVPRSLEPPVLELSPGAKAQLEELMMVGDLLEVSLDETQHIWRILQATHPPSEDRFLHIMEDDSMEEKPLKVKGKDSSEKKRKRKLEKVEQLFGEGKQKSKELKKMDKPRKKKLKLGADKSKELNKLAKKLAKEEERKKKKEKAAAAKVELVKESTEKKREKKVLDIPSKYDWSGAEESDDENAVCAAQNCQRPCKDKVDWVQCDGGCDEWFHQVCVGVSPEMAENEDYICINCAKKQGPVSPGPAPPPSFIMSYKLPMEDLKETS

For the molecule `CC(C)c1c(-c2cnn(C3(C)CC3)c2)[nH]c2c(C#N)cnn2c1=O` [Example 7, 6-Isopropyl-5-(1-(1-methylcyclopropyl)-1H-pyrazol-4-yl)-7-oxo-4,7-dihydropyrazolo[1,5-a]pyrimidine-3-carbonitrile], the half-inhibitory concentration (IC50) (commonly the concentration that gives 50% inhibition) came to 30 nM.

For the molecule `CC(C)c1c(-c2cn(C(C)C)nc2F)[nH]c2c(C#N)cnn2c1=O` [Example 8, 5-(3-Fluoro-1-isopropyl-1H-pyrazol-4-yl)-6-isopropyl-7-oxo-4,7-dihydropyrazolo[1,5-a]pyrimidine-3-carbonitrile], the IC50 turned out to be 22 nM.

With `CC(C)c1c(-c2cnn(C(C)(C)c3ccccc3)c2)[nH]c2c(C#N)cnn2c1=O` [Example 9, 6-Isopropyl-7-oxo-5-(1-(2-phenylpropan-2-yl)-1H-pyrazol-4-yl)-4,7-dihydropyrazolo[1,5-a]pyrimidine-3-carbonitrile], the half-maximal inhibitory concentration (IC50) came out at 40 nM.

Take `CC(C)c1c(-c2cnn(-c3cccnc3)c2)[nH]c2c(C#N)cnn2c1=O` [Example 10, 6-Isopropyl-7-oxo-5-(1-(pyridin-3-yl)-1H-pyrazol-4-yl)-4,7-dihydropyrazolo[1,5-a]pyrimidine-3-carbonitrile]: the IC50 amounted to 24 nM.

With `CC(C)c1c(-c2cnn(-c3ccncc3)c2)[nH]c2c(C#N)cnn2c1=O` [Example 11, 6-Isopropyl-7-oxo-5-(1-(pyridin-4-yl)-1H-pyrazol-4-yl)-4,7-dihydropyrazolo[1,5-a]pyrimidine-3-carbonitrile], the half-inhibitory concentration (IC50) stood at 14 nM.

For `CC(C)c1c(-c2cnn(-c3ccccn3)c2)[nH]c2c(C#N)cnn2c1=O` [Example 12, 6-Isopropyl-7-oxo-5-(1-(pyridin-2-yl)-1H-pyrazol-4-yl)-4,7-dihydropyrazolo[1,5-a]pyrimidine-3-carbonitrile], the half-inhibitory concentration (IC50) turned out to be 18 nM.

`CNC(=O)C(C)(C)n1cc(-c2[nH]c3c(C#N)cnn3c(=O)c2C(C)C)cn1` [Example 13, 2-(4-(3-Cyano-6-isopropyl-7-oxo-4,7-dihydropyrazolo[1,5-a]pyrimidin-5-yl)-1H-pyrazol-1-yl)-N,2-dimethylpropanamide]: the IC50 was found to be 23 nM.

Consider `CC(C)c1c(-c2cnn(C(C)C)c2F)[nH]c2c(C#N)cnn2c1=O` [Example 14, 5-(5-Fluoro-1-isopropyl-1H-pyrazol-4-yl)-6-isopropyl-7-oxo-4,7-dihydropyrazolo[1,5-a]pyrimidine-3-carbonitrile], for which the IC50 was 5.3 nM.

`CC(C)c1c(-c2cnn(C3CCSCC3)c2)[nH]c2c(C#N)cnn2c1=O` [Example 17, 6-isopropyl-7-oxo-5-(1-(tetrahydro-2H-thiopyran-4-yl)-1H-pyrazol-4-yl)-4,7-dihydropyrazolo[1,5-a]pyrimidine-3-carbonitrile]: the IC50 was determined as 41 nM.

In the case of `CC(C)c1c(-c2cnn(C3CCS(=O)(=O)CC3)c2)[nH]c2c(C#N)cnn2c1=O` [Example 18, 5-(1-(1,1-Dioxidotetrahydro-2H-thiopyran-4-yl)-1H-pyrazol-4-yl)-6-isopropyl-7-oxo-4,7-dihydropyrazolo[1,5-a]pyrimidine-3-carbonitrile], the IC50 was found to be 21 nM.

On to `CC(=O)/C=C/c1cccc(Cn2cc(-c3[nH]c4c(C#N)cnn4c(=O)c3C(C)C)cn2)n1` [Example 19, (E)-6-isopropyl-7-oxo-5-(1-((6-(3-oxobut-1-en-1-yl)pyridin-2-yl)methyl)-1H-pyrazol-4-yl)-4,7-dihydropyrazolo[1,5-a]pyrimidine-3-carbonitrile], for which the IC50 worked out at 55 nM.

As to `CCc1c[nH]c2c(C#N)cnn2c1=O` [Example 20, 6-Ethyl-7-oxo-4,7-dihydropyrazolo[1,5-a]pyrimidine-3-carbonitrile], the IC50 was 37 nM.

For `CC(C)(C)c1c[nH]c2c(C#N)cnn2c1=O` [Example 21, 6-(tert-Butyl)-7-oxo-4,7-dihydropyrazolo[1,5-a]pyrimidine-3-carbonitrile], the half-inhibitory concentration (IC50) worked out at 38 nM.

Consider `CC(C)c1c(CCc2ccccc2)[nH]c2c(C#N)cnn2c1=O` [Example 23, 6-isopropyl-7-oxo-5-phenethyl-4,7-dihydropyrazolo[1,5-a]pyrimidine-3-carbonitrile], for which the IC50 was 9.8 nM.

In the case of `CCc1c(-c2cccc(I)c2)[nH]c2c(C#N)cnn2c1=O` [Example 24, 6-ethyl-5-(3-iodophenyl)-7-oxo-4,7-dihydropyrazolo[1,5-a]pyrimidine-3-carbonitrile], the IC50 is 7 nM.

In the case of `CCc1c(C(=O)O)[nH]c2c(C#N)cnn2c1=O` [Example 25, 3-cyano-6-ethyl-7-oxo-4,7-dihydropyrazolo[1,5-a]pyrimidine-5-carb oxylic acid], the half-inhibitory concentration (IC50) amounted to 220 nM.

Consider `CCc1c(C(N)=O)n(C)c2c(C#N)cnn2c1=O` [Example 26, 3-cyano-6-ethyl-4-methyl-7-oxo-4,7-dihydropyrazolo[1,5-a]pyrimidine-5-carboxamide], for which the IC50 was 4400 nM.

For the molecule `CCc1c(C(=O)NC)n(C)c2c(C#N)cnn2c1=O` [Example 27, 3-cyano-6-ethyl-N,4-dimethyl-7-oxo-4,7-dihydropyrazolo[1,5-a]pyrimidine-5-carboxamide], the IC50 amounted to 3900 nM.

For the molecule `CCc1c(-c2nc(C)no2)[nH]c2c(C#N)cnn2c1=O` [Example 28, 6-ethyl-5-(3-methyl-1,2,4-oxadiazol-5-yl)-7-oxo-4H-pyrazolo[1,5-a]pyrimidine-3-carbonitrile], the IC50 came to 18 nM.

With `CCc1c(-c2nnc(C)o2)[nH]c2c(C#N)cnn2c1=O` [Example 29, 6-ethyl-5-(5-methyl-1,3,4-oxadiazol-2-yl)-7-oxo-4,7-dihydropyrazolo[1,5-a]pyrimidine-3-carbonitrile], the IC50 was 16 nM.

Take `CCc1c(-c2ncc[nH]2)[nH]c2c(C#N)cnn2c1=O` [Example 30, 6-ethyl-5-(1H-imidazol-2-yl)-7-oxo-4,7-dihydropyrazolo[1,5-a]pyrimidine-3-carbonitrile]: the IC50 amounted to 12 nM.

For `CCc1c(C(=O)NCC(=O)c2ccccc2)[nH]c2c(C#N)cnn2c1=O` [Example 31, 3-cyano-6-ethyl-7-oxo-N-(2-oxo-2-phenylethyl)-4,7-dihydropyrazolo[1,5-a]pyrimidine-5-carboxamide], the IC50 turned out to be 25 nM.

As for `CCc1c(-c2ncc(-c3ccccc3)o2)[nH]c2c(C#N)cnn2c1=O` [Example 32, 6-ethyl-7-oxo-5-(5-phenyloxazol-2-yl)-4,7-dihydropyrazolo[1,5-a]pyrimidine-3-carbonitrile], the 50% inhibitory concentration (IC50) amounted to 15 nM.

As for `N#Cc1cnn2c(=O)c(CC(F)F)c(-c3ccccc3)[nH]c12` [Example 33, 6-(2,2-Difluoroethyl)-7-oxo-5-phenyl-4H-pyrazolo[1,5-a]pyrimidine-3-carbonitrile], the IC50 worked out at 9.3 nM.

For the molecule `N#Cc1cnn2c(=O)c(C3CCC3)c(-c3ccccc3)[nH]c12` [Example 34, 6-Cyclobutyl-7-oxo-5-phenyl-4H-pyrazolo[1,5-a]pyrimidine-3-carbonitrile], the IC50 came to 9.5 nM.

As for `N#Cc1cnn2c(=O)c(C3CCC3)c(-c3cn[nH]c3)[nH]c12` [Example 35, 6-Cyclobutyl-7-oxo-5-(1H-pyrazol-4-yl)-4H-pyrazolo[1,5-a]pyrimidine-3-carbonitrile], the IC50 worked out at 30 nM.

Take `N#Cc1cnn2c(=O)c(C3CCC3)c(-c3cnn(C4CCCCC4)c3)[nH]c12` [Example 36, 6-Cyclobutyl-5-(1-cyclohexylpyrazol-4-yl)-7-oxo-4H-pyrazolo[1,5-a]pyrimidine-3-carbonitrile]: the IC50 was determined as 10.4 nM.
